Values quoted from earlier work as cited in PMC2660605 (Biochemistry, 2008).

How the values were obtained:
[1] = tested on: HIV-1 with IN mutation T66I
[2] = tested on: HIV-1 with IN mutation E92Q
[3] = target: HIV-1 integrase E92Q (Human immunodeficiency virus type 1 group M subtype B, UniProt P12497, E1239Q); details: E92Q mutant

Compound: COc1cc2c(cc1Cc1cccc(Cl)c1F)c(=O)c(C(=O)O)cn2[C@H](CO)C(C)C [Elvitegravir, elvitegravir]
- reduced susceptibility [1]: 37 fold
- reduced susceptibility [2]: 36 fold
- resistance level [3]: 4.3 fold
